What was measured:
CD4+ lymphocytes = details: daily x5 schedule, low malignant lymphomas; cited from earlier work
[1] = tested on: PHA-activated T-lymphocytes (peripheral blood mononuclear cells); experiment: T-lymphocyte colony formation (lymphocyte colony-growth assay, microagar culture); assay type: cell-based; details: 168 h, PBMC, colonies scored after 7 days, read-out: 50% inhibition of PHA-induced lymphocyte proliferation (colony formation)
Protocol: dFdC is commercially available. […] Aye, Blood 58, 1043 (1981). Therefore, peripheral blood mononuclear cells (PBMC) were cultured with phytohemagglutinin (PHA) and varying concentrations of dFdC in the microagar culture system described by Petzer et al., Blood 78, 2583 (1991). PBMCs were suspended in Iscove s medium containing 20% fetal calf serum and 0.3% agar. Subsequently 250 μl aliquots of this suspension containing 2×10^5 PBMCs were plated in multiwell tissue culture plates. The agar was allowed to solidify at room temperature and then was overlayered with 250 μl medium containing 0.5% PHA and 0.5% 2-mercaptoethanol (1×10^−4 mol/l final concentrations). The cultures were incubated at 37° C. in a fully humidified atmosphere containing 5% CO2 and colonies were scored using an inverted microscope after 7 days of incubation.

heart allografts = experiment: Rat heart-transplantation model (heterotopic heart allograft); assay type: in vivo; design: Leucopenia: dose or concentration left out as unconfirmed; details: for Graft rejection: histology graded by ISHT criteria
Protocol: Inbred male LEWIS (LEW) rats and Brown Norway (BN) rats weighing 200-270 g were obtained from “Zentralinstitut fur Versuchstierzucht”, Hannover, Germany. Heterotopic heart transplants were performed using microsurgical techniques as described by Schmid et al., Eur. Surg. […] Postoperatively, all animals were given water and standard rat diet ad libitum.
dFdC was administered subcutaneously once daily for 50 consecutive days beginning immediately after surgery. […] The control group (n=8) received no treatment.
The beating activity of heart allografts was determined by daily palpation. Animals were sacrificed by an overdose of ether whenever cardiac allografts stopped beating and hearts and all vital organs were excised for histology. Multiple sections of the left ventricle of the transplant and of every native organ were fixed in 4% buffered formalin. Paraffin-embedded probes were cut into 5-jim-thick sections and stained with hematoxylin and eosin. Slides were assessed by a pathologist blinded to the study and rejection was graded according to the ISHT criteria.

[2] = i.v. over 30 minutes once per week for 3 weeks followed by a week's rest; cited from earlier work
[3] = tested on: CD4+ and CD8+ lymphocyte subsets; details: after repeated applications; cited from earlier work
[4] = daily x5 schedule, 9 mg/m^2 dose level; cited from earlier work

## Nc1nc(Cl)nc2c1ncn2[C@H]1C[C@H](O)[C@@H](CO)O1 [2-chlorodeoxyadenosine]
CD4+ lymphocytes
  Duration of severe suppression of CD4+ lymphocytes: more than 12 months

## Nc1ccn([C@@H]2O[C@H](CO)[C@@H](O)C2(F)F)c(=O)n1 [dFdC, 2′-deoxy-2′,2′-difluorocytidine]
[1]
  IC50: 3.25 ± 0.9 nM
Heart allografts; 25 μg/kg/day s.c. once daily for 50 days
  Allograft survival: 7.3 days
Heart allografts; 25 μg/kg/day
  Graft rejection: Grade IV
Heart allografts; 50 μg/kg/day s.c. once daily for 50 days
  Allograft survival: 9.2 days
Heart allografts; 50 μg/kg/day
  Graft rejection: Grade IV
Heart allografts; 75 μg/kg/day s.c. once daily for 50 days
  Allograft survival: 15.7 days
Heart allografts; 75 μg/kg/day
  Graft rejection: Grade IV
Heart allografts; 100 μg/kg/day s.c. once daily for 50 days
  Allograft survival: 152.8 days
Heart allografts; 100 μg/kg/day
  Graft rejection: Grade IV
Heart allografts; 125 μg/kg/day s.c. once daily for 50 days
  Allograft survival: 144.2 days
Heart allografts; 125 μg/kg/day
  Graft rejection: Grade IV
Heart allografts; 150 μg/kg/day s.c. once daily for 50 days
  Allograft survival: 41.5 days
Heart allografts; 150 μg/kg/day
  Graft rejection: None
Heart allografts; 300 μg/kg/day s.c. once daily for 50 days
  Allograft survival: 16.0 days
Heart allografts; 300 μg/kg/day
  Graft rejection: None
Heart allografts; 600 μg/kg/day s.c. once daily for 50 days
  Allograft survival: 10.5 days
Heart allografts; 600 μg/kg/day
  Graft rejection: None
Heart allografts; 6000 μg/kg/day s.c. once daily for 50 days
  Allograft survival: 4.0 days
Heart allografts; 6000 μg/kg/day
  Graft rejection: None
Heart allografts; all animals given between 75 and 600 μg/kg BW
  Graft survival compared to untreated controls: prolonged
Heart allografts; all animals of all dose groups
  Leucopenia: Dose-dependent leucopenia occurred in all animals of all groups
Heart allografts; animals given less than 150 μg/kg
  Reversibility of leucopenia: reversible
Heart allografts; more than 125 μg/kg BW
  Toxicity at high dose: overimmunosuppression and irreversible myelotoxicity
[2]
  Myelosuppression with severe infections (WHO grade III/IV), share of patients: less than 1%
[3]
  Reduction of CD4+ and CD8+ lymphocyte subsets: no significant reduction
[4]
  Nonhaematologic toxicity: significant amount of nonhaematologic toxicity including sporadic fever and severe hypertension
